In one assay the test system is GBM6138. Briefly: Antiproliferative activity, MTT assay, GBM6138. The assay is classed as cell-based. As to conditions: low-passage glioblastoma GBM6138, 72 h.
Another assay deals with GBM5522. Briefly: Antiproliferative activity, MTT assay, GBM5522. The assay is classed as cell-based. As to conditions: low-passage glioblastoma GBM5522, 72 h. (Formazan colour is commonly taken as a measure of viable cells.)

The values below come from PMC12071598, “Piperazine-Substituted Pyranopyridines Exhibit Antiproliferative Activity and Act as Inhibitors of HBV Virion Production” (International Journal of Molecular Sciences, 2025).

The IC50 is the concentration needed to halve the response being measured. A low value points to higher potency.

As for `COc1cccc(NC(=O)CSc2nc(N3CCNCC3)c3c(c2C#N)CC(C)(C)OC3)c1` [DO11-47, 2-[(5-Cyano-3,3-dimethyl-8-piperazin-1-yl-3,4-dihydro-1H-pyrano[3,4-c]pyridin-6-yl)thio]-N-(3-methoxyphenyl)acetamide], the IC50 stood at 104 ± 22.1 µM in the assay on GBM6138 and 20 ± 6.8 µM in the assay on GBM5522.

Regarding `CNC(=O)c1cc(Oc2ccc(NC(=O)Nc3ccc(Cl)c(C(F)(F)F)c3)cc2)ccn1` [Sorafenib, reference compound], inhibition in the assay on GBM5522 was half-maximal at 84 ± 14 µM (IC50).

For the compound `CC1(C)Cc2c(C#N)c(SCc3ccccc3Cl)nc(N3CCNCC3)c2CO1` [DO11-42, 6-[(2-Chlorobenzyl)thio]-3,3-dimethyl-8-piperazin-1-yl-3,4-dihydro-1H-pyrano[3,4-c]pyridine-5-carbonitrile], the values for the concentration for half-maximal inhibition (IC50) with GBM6138 and in the assay on GBM5522 were 51.2 ± 10.7 µM and 4.2 ± 1.3 µM, respectively.

For the compound `CC1(C)Cc2c(C#N)c(SCC(N)=O)nc(N3CCNCC3)c2CO1` [DO11-37, 2-[(5-Cyano-3,3-dimethyl-8-piperazin-1-yl-3,4-dihydro-1H-pyrano[3,4-c]pyridin-6-yl)thio]acetamide], the IC50 in the assay on GBM6138 was found to be 571 ± 77.7 µM; in the assay with GBM5522 it was 309 ± 63.3 µM.

On to `COc1ccccc1NC(=O)CSc1nc(N2CCNCC2)c2c(c1C#N)CC(C)(C)OC2` [DO11-48, 2-[(5-Cyano-3,3-dimethyl-8-piperazin-1-yl-3,4-dihydro-1H-pyrano[3,4-c]pyridin-6-yl)thio]-N-(2-methoxyphenyl)acetamide], for which the IC50 stood at 27.9 ± 2.6 µM with GBM6138 and 3.8 ± 1.5 µM in the assay with GBM5522.

For the compound `CC(=O)c1ccc(NC(=O)CSc2nc(N3CCNCC3)c3c(c2C#N)CC(C)(C)OC3)cc1` [DO11-50, N-(4-acetylphenyl)-2-[(5-cyano-3,3-dimethyl-8-piperazin-1-yl-3,4-dihydro-1H-pyrano[3,4-c]pyridin-6-yl)thio]acetamide], the IC50 with GBM6138 turned out to be 54.7 ± 28.7 µM; in the assay with GBM5522, 15.9 ± 4.2 µM.
